Experimental data taken from patent US11857584B2, “Oncolytic virus growth method and antitumor agent” (KABUSHIKI KAISHA YAKULT HONSHA, priority 2017, dated 2024).

Assays:
CVA11 = assay: Promotion of CVA11 proliferation (virus titer) in WiDr cells; type: cell-based, coxsackievirus A11; settings: then CVA11 MOI 0.01, about 30 hours, t-test
CVB3 = assay: Promotion of CVB3 proliferation (virus titer) in WiDr cells; type: cell-based, coxsackievirus B3
[1] = system: DAF (decay accelerating factor); assay: Virus receptor expression by real-time PCR in WiDr cells, DAF; type: cell-based, human; settings: oxaliplatin 50 μM about 42 hours, or CVA11 added about 20 hours after seeding, t-test
Procedure: (§1) The cultured oxaliplatin-resistant colon cancer cell line (WiDr) was suspended in DMEM medium at 3×10^6 cells/mL. To each well of a 96-well plate, 100 μl of the obtained cell suspension was dispensed and the cells were seeded at 3×10^5 cells/well. […] Thereafter, the plate was allowed to stand for about 42 hours at 37° C., 5% CO2, and then mRNA was collected to prepare cDNA. […] The expressions of DAF (decay accelerating factor) and ICAM-1 (intercellular adhesion molecule 1) were compared by real-time PCR. The t-test was used as the test.

AAV = assay: Promotion of AAV proliferation (virus copy number, real-time PCR) in WiDr cells; type: cell-based
Procedure: pAAV-CMV Vector (manufactured by Takara Bio Co., Ltd.) was used as AAV. pAAV-CMV Vector was prepared using AAVpro (registered trademark) Helper Free System (manufactured by Takara Bio Co., Ltd.). The collected supernatant (virus solution) was stored at −80° C.
The cultured oxaliplatin-resistant colon cancer cell line (WiDr) was suspended in DMEM medium at […]. To each well of a 96-well plate, 100 μl of the obtained cell suspension was dispensed and the cells were seeded at 3×10^5 cells/well. […] Subsequently, the plate was allowed to stand for about 24 hours at 37° C., 5% CO2, and then AAV was added thereto at a MOI of 0.01. After the plate was allowed to stand for about 30 hours at 37° C., 5% CO2, virus copy numbers were measured using AAVpro (registered trademark) Titration Kit (for Real Time PCR) Ver.2 (manufactured by Takara Bio Co., Ltd.). The t-test was used as the test.

[2] = system: ICAM-1 (intercellular adhesion molecule 1); assay: Virus receptor expression by real-time PCR in WiDr cells, ICAM-1; type: cell-based, human; settings: oxaliplatin 50 μM about 42 hours, or CVA11 added about 20 hours after seeding, t-test
Procedure: as §1

[3] = Body weight change (adverse event) in WiDr-bearing nude mice; settings: oxaliplatin 100 μg i.p. day 1; CVA11 5×10^7 PFU intratumoral days 2, 4, 6, 8, 10
Procedure: WiDr was washed with PBS and suspended in OPTI-MEM I at 5.0×10^7 cells/mL. 100 μl of the suspension containing WiDr was injected subcutaneously with a 27 G needle into the right flank of BALB/c nude mice of 6-8 weeks old. […] The tumor volume was calculated by major axis×minor axis×minor axis×0.5. The test was conducted using 5 mice in each group, and the t-test was used as the test.

O=c1[nH]cc(F)c(=O)[nH]1 [5-FU, 5-fluorouracil]
CVA11 virus load (virus titer) (CVA11; 5-FU 50 μM): significant increase in CVA11 virus load

CCc1c2c(nc3ccc(O)cc13)-c1cc3c(c(=O)n1C2)COC(=O)[C@]3(O)CC [SN-38, 7-ethyl-10-hydroxycamptothecin]
CVA11 virus load (virus titer) (CVA11; SN-38 1.0, 5.0 or 50 μM): significant increase in CVA11 virus load

N.N.[Cl][Pt][Cl] [cisplatin]
CVB3 virus load (virus titer) (CVB3; cisplatin 0.5 or 1.0 μM, then CVB3 MOI 0.01): no increase in CVB3 virus load was observed

O=C1[O][Pt]2([NH][C@@H]3CCCC[C@H]3[NH]2)[O]C1=O [oxaliplatin]
CVB3 virus load (virus titer) (CVB3; oxaliplatin 1 μM, then CVB3 MOI 0.01, t-test): significant increase | CVB3 virus load (virus titer) (CVB3; oxaliplatin 0.5 or 1.0 μM, then CVB3 MOI 0.01, about 30 hours): increase in CVB3 virus load was observed | expression of DAF (real-time PCR) [1]: significantly increased | copy number of AAV (AAV; oxaliplatin 0.25, 0.5, 1.0 or 2.5 μM, then AAV MOI 0.01, about 30 hours, t-test): significant, increase in the copy number of AAV | copy number of AAV (AAV; oxaliplatin 0.25 to 1.0 μM, then AAV MOI 0.01): remarkable increase | CVA11 virus load (virus titer) (CVA11; oxaliplatin 50 μM, vs CVA11 only): significant increase in CVA11 virus load | expression of ICAM-1 (real-time PCR) [2]: significantly increased | body weight loss, compared with untreated group [3]: no significant weight loss was observed
